Measured values published in patent US20240182445A1 (ONO PHARMACEUTICAL CO., LTD., priority 2019, published 2024).

Molecular target: T1, human TREK-1 (Homo sapiens, UniProt O95069)
T1 construct: expressed in transfected cells
T1 sequence (O95069 1-426): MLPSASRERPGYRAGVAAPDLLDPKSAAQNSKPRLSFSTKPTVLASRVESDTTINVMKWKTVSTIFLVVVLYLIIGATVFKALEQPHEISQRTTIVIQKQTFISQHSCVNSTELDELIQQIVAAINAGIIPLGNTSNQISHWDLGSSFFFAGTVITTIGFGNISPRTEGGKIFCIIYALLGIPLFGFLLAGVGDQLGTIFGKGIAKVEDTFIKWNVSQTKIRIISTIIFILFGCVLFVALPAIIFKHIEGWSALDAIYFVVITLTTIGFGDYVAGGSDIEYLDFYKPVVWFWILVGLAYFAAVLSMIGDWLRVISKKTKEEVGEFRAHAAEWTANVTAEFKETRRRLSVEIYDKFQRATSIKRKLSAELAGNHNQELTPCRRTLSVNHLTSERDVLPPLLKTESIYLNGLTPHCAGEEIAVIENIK
Experiment: TREK-1 Thallium (Tl+) flux assay, Method 1
Type: cell-based
Conditions: TREK-1 Thallium (Tl+) flux assay
How it was run: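 CHO-K1 cells stably expressing human TREK-1, loaded with Thallos dye, received compound or 0.3% DMSO vehicle for 10 min before thallium stimulus buffer. ΔRatio is fluorescence at 25 s after thallium addition over mean pre-addition fluorescence; % inhibition calculated from it.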

[1] = values without footnote *12 are Method 1
[2] = no *^12 (Method 2) mark on these rows

SMILES | IC50 [1] | IC50 [2]
CC(=O)N1CC2(CC(n3ncc(Cl)c3C(=O)Nc3ncc(C#Cc4ccccc4)cc3C)C2)C1 [Compound 173, 1-(2-acetyl-2-azaspiro[3.3]heptan-6-yl)-4-chloro-N-(3-methyl-5-(phenylethynyl)pyridin-2-yl)-1H-pyrazole-5-carboxamide] | 0.27 µM | 
Cc1cc(C#Cc2cccc(F)c2)cnc1NC(=O)c1c(Cl)cnn1CC1CCN(C(=O)C2CC2)CC1 [Compound 174, 4-chloro-1-((1-(cyclopropanecarbonyl)piperidin-4-yl)methyl)-N-(5-((3-fluorophenyl)ethynyl)-3-methylpyridin-2-yl)-1H-pyrazole-5-carboxamide] | 0.27 µM | 
CC(C)C(=O)N1CCC(n2ncc(Cl)c2C(=O)Nc2ncc(C#Cc3cccs3)cc2F)CC1 [Compound 175, 4-chloro-N-(3-fluoro-5-(thiophen-2-ylethynyl)pyridin-2-yl)-1-(1-isobutyrylpiperidin-4-yl)-1H-pyrazole-5-carboxamide] | 0.27 µM | 
CC(=O)N1CCCC(Cn2ncc(Cl)c2C(=O)Nc2ncc(C#Cc3ccccc3)cc2C)C1 (stereo not shown) [Compound 176, 1-((1-acetylpiperdin-3-yl)methyl)-4-chloro-N-(3-methyl-5-(phenylethynyl)pyridin-2-yl)-1H-pyrazole-5-carboxamide] | 0.27 µM | 
CC(=O)N1CCCC(Cn2ncc(Cl)c2C(=O)Nc2ncc(C#Cc3ccccc3)cc2F)C1 (stereo not shown) [Compound 177, 1-((1-acetylpiperidin-3-yl)methyl)-4-chloro-N-(3-fluoro-5-(phenylethynyl)pyridin-2-yl)-1H-pyrazole-5-carboxamide] | 0.27 µM | 
CC(=O)N1CC[C@@H](Cn2ncc(Cl)c2C(=O)Nc2ncc(C#Cc3ccccc3)cc2F)[C@H](F)C1 [Compound 178, 1-(((3S,4S)-1-acetyl-3-fluoropiperidin-4-yl)methyl)-4-chloro-N-(3-fluoro-5-(phenylethynyl)pyridin-2-yl)-1H-pyrazole-5-carboxamide] | 0.27 µM | 
CC(=O)N1CCC(C#N)(Cn2ncc(Cl)c2C(=O)Nc2ncc(C#Cc3ccc(F)cc3)cc2C)CC1 [Compound 179, 1-((1-acetyl-4-cyanopiperidin-4-yl)methyl)-4-chloro-N-(5-((4-fluorophenyl)ethynyl)-3-methylpyridin-2-yl)-1H-pyrazole-5-carboxamide] | 0.27 µM | 
Cc1cc(C#Cc2ccccc2)cc(F)c1NC(=O)c1c(Cl)cnn1C1CCOCC1 [Compound 180, 4-chloro-N-(2-fluoro-6-methyl-4-(phenylethynyl)phenyl)-1-(tetrahydro-2H-pyran-4-yl)-1H-pyrazole-5-carboxamide] | 0.28 µM | 
Cc1cc(C#Cc2ccc(F)cc2)cnc1NC(=O)c1c(Cl)cnn1C1CCN(C(=O)C(C)(C)C)CC1 [Compound 181, 4-chloro-N-(5-((4-fluorophenyl)ethynyl)-3-methylpyridin-2-yl)-1-(1-pivaloylpiperidin-4-yl)-1H-pyrazole-5-carboxamide] | 0.28 µM | 
CC(C)C(=O)N1CC2(CC(n3ncc(Cl)c3C(=O)Nc3ncc(C#Cc4ccccc4)cc3F)C2)C1 [Compound 182, 4-chloro-N-(3-fluoro-5-(phenylethynyl)pyridin-2-yl)-1-(2-isobutyryl-2-azaspiro[3.3]heptan-6-yl)-1H-pyrazole-5-carboxamide] | 0.28 µM | 
Cc1cc(C#Cc2ccccc2)cnc1NC(=O)c1c(Cl)cnn1[C@H]1C[C@H](NC(=O)C(C)C)C1 [Compound 183, 4-chloro-1-(trans-3-isobutyramidocyclobutyl)-N-(3-methyl-5-(phenylethynyl)pyridin-2-yl)-1H-pyrazole-5-carboxamide] | 0.28 µM | 
Cc1cc(C#Cc2ccccc2)cnc1NC(=O)c1c(Cl)cnn1CC1(C)CCN(C(=O)C2CC2C)CC1 (stereo not shown) [Compound 184, 4-chloro-1-((4-methyl-1-(2-methylcyclopropane-1-carbonyl)piperidin-4-yl)methyl)-N-(3-methyl-5-(phenylethynyl)pyridin-2-yl)-1H-pyrazole-5-carboxamide] | 0.28 µM | 
Cc1cc(C#Cc2ccccc2)cc(F)c1NC(=O)c1c(Cl)cnn1CCCC#N [Compound 185, 4-chloro-1-(3-cyanopropyl)-N-(2-fluoro-6-methyl-4-(phenylethynyl)phenyl)-1H-pyrazole-5-carboxamide] | 0.29 µM | 
Cc1cc(C#Cc2ccccc2)cnc1NC(=O)c1c(Cl)cnn1CC1CCN(C(=O)OC(C)(C)C)CC1 [Compound 186, tert-butyl 4-((4-chloro-5-((3-methyl-5-(phenylethynyl)pyridin-2-yl)carbamoyl)-1H-pyrazol-1-yl)methyl)piperidine-1-carboxylate] | 0.29 µM | 
Cc1cc(C#Cc2cccs2)cnc1NC(=O)c1c(Cl)cnn1[C@H]1C[C@@H]2CN(C(=O)C(C)C)C[C@@H]2C1 [Compound 187, 4-chloro-1-[(3aR,5s,6aS)-2-(2-methylpropanoyl)octahydrocyclopenta [c]pyrrol-5-yl]-N-{3-methyl-5-[(thiophen-2-yl)ethynyl]pyridin-2-yl}-1H-pyrazole-5-carboxamide] | 0.29 µM | 
Cc1cc(C#Cc2ccccc2)cnc1NC(=O)c1c(Cl)cnn1CCC1CCN(C(=O)C(C)C)CC1 [Compound 188, 4-chloro-1-(2-(1-isobutyrylpiperidin-4-yl)ethyl)-N-(3-methyl-5-(phenylethynyl)pyridin-2-yl)-1H-pyrazole-5-carboxamide] | 0.29 µM | 
O=C(Nc1ncc(C#Cc2ccccc2)cc1F)c1c(Cl)cnn1-c1ccc2c(c1)OCCO2 [Compound 189, 4-chloro-1-(2,3-dihydrobenzo[b][1,4]dioxin-6-yl)-N-(3-fluoro-5-(phenylethynyl)pyridin-2-yl)-1H-pyrazole-5-carboxamide] | 0.29 µM | 
CC(C)C(=O)N1CCC(F)(Cn2ncc(Cl)c2C(=O)Nc2ncc(C#Cc3ccccc3)cc2F)CC1 [Compound 190, 4-chloro-1-((4-fluoro-1-isobutyrylpiperidin-4-yl)methyl)-N-(3-fluoro-5-(phenylethynyl)pyridin-2-yl)-1H-pyrazole-5-carboxamide] | 0.29 µM | 
Cc1cc(C#Cc2ccccc2)cnc1NC(=O)c1c(Cl)cnn1[C@H]1CC[C@H](NC(=O)C(C)C)CC1 [Compound 191, 4-chloro-1-(trans-4-isobutyramidocyclohexyl)-N-(3-methyl-5-(phenylethynyl)pyridin-2-yl)-1H-pyrazole-5-carboxamide] | 0.29 µM | 
CC(=O)N1CCC(Cn2ncc(Cl)c2C(=O)Nc2ncc(C#Cc3ccccc3)cc2F)C(F)(F)C1 (stereo not shown) [Compound 192, 1-((1-acetyl-3,3-difluoropiperidin-4-yl)methyl)-4-chloro-N-(3-fluoro-5-(phenylethynyl)pyridin-2-yl)-1H-pyrazole-5-carboxamide] | 0.29 µM | 
CC(=O)N[C@H]1CC[C@H](n2ncc(Cl)c2C(=O)Nc2ncc(C#Cc3ccc(F)cc3)cc2C)CC1 [Compound 193, 1-(trans-4-acetamidocyclohexyl)-4-chloro-N-(5-((4-fluorophenyl)ethynyl)-3-methylpyridin-2-yl)-1H-pyrazole-5-carboxamide] | 0.29 µM | 
Cc1cc(C#Cc2ccccc2)cc(F)c1NC(=O)c1c(Cl)cnn1C1CC(C#N)C1 (stereo not shown) [Compound 194, 4-chloro-1-(3-cyanocyclobutyl)-N-(2-fluoro-6-methyl-4-(phenylethynyl)phenyl)-1H-pyrazole-5-carboxamide] | 0.3 µM | 
CC(=O)N1C[C@H]2C[C@H](n3ncc(Cl)c3C(=O)Nc3ncc(C#Cc4cccc(F)c4)cc3C)C[C@H]2C1 [Compound 195, 1-[(3aR,5s,6aS)-2-acetyloctahydrocyclopenta[c]pyrrol-5-yl]-4-chloro-N-{5-[(3-fluorophenyl)ethynyl]-3-methylpyridin-2-yl}-1H-pyrazole-5-carboxamide] |  | 0.3 µM
CC(=O)N1CCC(CCn2ncc(Cl)c2C(=O)Nc2ncc(C#Cc3ccccc3F)cc2C)CC1 [Compound 196, 1-(2-(1-acetylpiperidin-4-yl)ethyl)-4-chloro-N-(5-((2-fluorophenyl)ethynyl)-3-methylpyridin-2-yl)-1H-pyrazole-5-carboxamide] |  | 0.3 µM
Cc1cc(C#Cc2ccc(F)cc2)cnc1NC(=O)c1c(Cl)cnn1[C@H]1C[C@H](NC(=O)C2CC2)C1 [Compound 198, 4-chloro-1-(trans-3-(cyclopropanecarboxamido)cyclobutyl)-N-(5-((4-fluorophenyl)ethynyl)-3-methylpyridin-2-yl)-1H-pyrazole-5-carboxamide] |  | 0.3 µM
O=C(Nc1c(F)cc(C#Cc2ccccc2)cc1F)c1c(Cl)cnn1[C@H]1CCOC1 [Compound 199, (S)-4-chloro-N-(2,6-difluoro-4-(phenylethnyl)phenyl)-1-(tetrahydrofuran-3-yl)-1H-pyrazole-5-carboxamide] |  | 0.31 µM
Cc1cc(C#Cc2ccccc2)cc(F)c1NC(=O)c1c(Cl)cnn1C[C@@H]1CCOC1 [Compound 200, (S)-4-chloro-N-(2-fluoro-6-methyl-4-(phenylethynyl)phenyl)-1-((tetrahydrofuran-3-yl)methyl)-1H-pyrazole-5-carboxamide] |  | 0.31 µM
O=C(Nc1c(F)cc(C#Cc2ccccc2)cc1F)c1c(Cl)cnn1C1CCOCC1 [Compound 201, 4-chloro-N-(2,6-difluoro-4-(phenylethynyl)phenyl)-1-(tetrahydro-2H-pyran-4-yl)-1H-pyrazole-5-carboxamide] |  | 0.31 µM
